Blank lines part the entries; values can stand above or below the compound they belong to.
Experiments:
[1] = system: synthetic neomycin-sensing riboswitch, 2FA-labeled (RNA, riboswitch, 2-fluoroadenine at 16, 17 and 24) GGCUGCUUGUCCUUUAAUGGUCCAGCC; test: 19F NMR titration; details: 303 K; saturating ligand; 215-1200 µM RNA, 1-1.5 equivalents ligand
[2] = system: synthetic neomycin-sensing riboswitch, 2FA-labeled (RNA, riboswitch, 2-fluoroadenine at 16, 17 and 24) GGCUGCUUGUCCUUUAAUGGUCCAGCC; test: ITC; details: 200 mM NaCl, 10 mM MgCl2, 20 mM Na-cacodylate, 1 mM spermidine, pH 6.8, 37 °C, one-site model

binding [1]: yes
SMILES: NC[C@@H]1O[C@H](O[C@H]2[C@@H](O)[C@H](O[C@@H]3[C@@H](O)[C@H](N)C[C@H](N)[C@H]3O[C@H]3O[C@H](CN)[C@@H](O)[C@H](O)[C@H]3N)O[C@@H]2CO)[C@H](N)[C@@H](O)[C@@H]1O

KD ([2]; 10 µM RNA, 100 µM ligand): 0.356 ± 0.019 µM
SMILES: NC[C@H]1O[C@H](O[C@H]2[C@H](O[C@@H]3O[C@H](CO)[C@@H](O)[C@H]3O)[C@@H](O)[C@H](N)C[C@@H]2N)[C@H](N)[C@@H](O)[C@@H]1O

KD ([2]; 30 µM RNA, 300 µM ligand): 5.7 ± 3.8 µM
SMILES: NC[C@@H]1O[C@H](O[C@H]2[C@@H](O)[C@H](O[C@@H]3[C@@H](O)[C@H](N)C[C@H](N)[C@H]3O[C@H]3O[C@H](CO)[C@@H](O)[C@H](O)[C@H]3N)O[C@@H]2CO)[C@H](N)[C@@H](O)[C@@H]1O
